What was measured:
[1] = test system: A549-ACE2 infected with SARS-CoV-2; assay: morphology score (similarity to uninfected cells); higher = more like uninfected cells; details: 24 h
A549-ACE2 [2] = assay: phospholipidosis EC50; higher = less potent phospholipidosis inducer
[3] = test system: A549-ACE2 infected with SARS-CoV-2; assay: cell count relative to DMSO; higher = less toxic; details: 24 h
U2OS [4] = assay: relative viability EC50 (midpoint between 100% and the lowest measured viability); higher = less toxic; details: 72 h
HepG2 [5] = assay: as above; details: 72 h
Caco-2 [6] = assay: as above; details: 72 h
Calu-3 [7] = assay: as above; details: 72 h
Vero E6 [8] = assay: as above; details: 72 h
U2OS [9] = assay: cell viability relative to DMSO; higher = less toxic; details: 72 h
HepG2 [10] = assay: as above; details: 72 h
Caco-2 [11] = assay: as above; details: 72 h
Calu-3 [12] = assay: as above; details: 72 h
Vero E6 [13] = assay: as above; details: 72 h
U2OS [14] = assay: drug sensitivity score (DSS) for viability; higher = more toxic; extreme values may be limits of the assay; details: 72 h
HepG2 [15] = assay: as above; details: 72 h
Caco-2 [16] = assay: as above; details: 72 h
Calu-3 [17] = assay: as above; details: 72 h
Vero E6 [18] = assay: as above; details: 72 h
A549-ACE2 [19] = assay: drug-induced phospholipidosis relative to tamoxifen; higher = more phospholipidosis
[20] = test system: A549-ACE2 infected with SARS-CoV-2; assay: SARS-CoV-2 infection rate relative to DMSO; higher = more infection; details: 24 h

O=C(NCCCN1CCC2(CC1)OCc1ccccc12)[C@H]1CCCN1Cc1ccccc1 [BAN-ORL-24]
Details	SARS-CoV-2 infection rate [%]	cell count [%]	cell viability [%]	morphology score	phospholipidosis EC50 [µM]
A549-ACE2 [2], 24 h	–	–	–	–	9.61
A549-ACE2 [2], 48 h	–	–	–	–	9.12
A549-ACE2 [2], 72 h	–	–	–	–	15
Caco-2 [11], 1 nM	–	–	98.3	–	–
Caco-2 [11], 10 nM	–	–	103	–	–
Caco-2 [11], 100 nM	–	–	101	–	–
Caco-2 [11], 1000 nM	–	–	105	–	–
Caco-2 [11], 10000 nM	–	–	92.1	–	–
Calu-3 [12], 1 nM	–	–	104	–	–
Calu-3 [12], 10 nM	–	–	108	–	–
Calu-3 [12], 100 nM	–	–	114	–	–
Calu-3 [12], 1000 nM	–	–	105	–	–
Calu-3 [12], 10000 nM	–	–	87.1	–	–
HepG2 [10], 1 nM	–	–	97.5	–	–
HepG2 [10], 10 nM	–	–	109	–	–
HepG2 [10], 100 nM	–	–	103	–	–
HepG2 [10], 1000 nM	–	–	98.7	–	–
HepG2 [10], 10000 nM	–	–	89.2	–	–
U2OS [9], 1 nM	–	–	105	–	–
U2OS [9], 10 nM	–	–	105	–	–
U2OS [9], 100 nM	–	–	104	–	–
U2OS [9], 1000 nM	–	–	104	–	–
U2OS [9], 10000 nM	–	–	99.2	–	–
Vero E6 [13], 1 nM	–	–	94.8	–	–
Vero E6 [13], 10 nM	–	–	95.8	–	–
Vero E6 [13], 100 nM	–	–	91.6	–	–
Vero E6 [13], 1000 nM	–	–	93.2	–	–
Vero E6 [13], 10000 nM	–	–	99.5	–	–
[1], 0.3 µM	–	–	–	-0.05	–
[1], 3 µM	–	–	–	0.69	–
[1], 10 µM	–	–	–	0.81	–
[1], 30 µM	–	–	–	0.69	–
[3], 0.3 µM	–	98	–	–	–
[3], 3 µM	–	117	–	–	–
[3], 10 µM	–	117	–	–	–
[3], 30 µM	–	123	–	–	–
[20], 0.3 µM	98	–	–	–	–
[20], 3 µM	59	–	–	–	–
[20], 10 µM	33	–	–	–	–
[20], 30 µM	18	–	–	–	–

Details	drug sensitivity score	relative viability EC50 [µM]
Caco-2 [6]	–	> 10
Caco-2 [16]	0	–
Calu-3 [7]	–	> 10
Calu-3 [17]	0	–
HepG2 [5]	–	> 10
HepG2 [15]	0	–
U2OS [4]	–	> 10
U2OS [14]	0	–
Vero E6 [8]	–	> 10
Vero E6 [18]	0	–

drug-induced phospholipidosis [%], A549-ACE2 [19]
Details	0.3 µM	0.833333 µM	3.33333 µM	6.66667 µM	10 µM	30 µM
24 h	0.49	5.2	25.6	45.9	72.6	109
48 h	2.06	7.81	23.6	36.2	59.3	110
72 h	5.31	9.96	24.4	35	56.6	125

CC1=C(C(=O)OC2CCCCC2)C(c2ccc([N+](=O)[O-])cc2)C2=C(CC(C)(C)CC2=O)N1 (stereo not drawn) [FLI-06]
Details	SARS-CoV-2 infection rate, [20] [%]	cell count, [3] [%]	cell viability, Caco-2 [11] [%]	cell viability, Calu-3 [12] [%]	cell viability, HepG2 [10] [%]	cell viability, U2OS [9] [%]	cell viability, Vero E6 [13] [%]	morphology score, [1]
1 nM	–	–	102	104	98.5	101	94.2	–
10 nM	–	–	101	106	102	100	92.2	–
0.1 µM	111	99	–	–	–	–	–	-0.06
100 nM	–	–	100	92.3	101	98.7	96.6	–
0.3 µM	100	104	–	–	–	–	–	-0.11
1 µM	101	99	–	–	–	–	–	0.02
1000 nM	–	–	98	106	108	100	103	–
3 µM	51	101	–	–	–	–	–	0.52
10000 nM	–	–	19.1	21.8	38.8	9.6	14.2	–

Details	drug sensitivity score	relative viability EC50 [µM]
Caco-2 [6]	–	2.99
Caco-2 [16]	4.7	–
Calu-3 [7]	–	3.53
Calu-3 [17]	3.9	–
HepG2 [5]	–	3.72
HepG2 [15]	2.8	–
U2OS [4]	–	3.16
U2OS [14]	5.1	–
Vero E6 [8]	–	3.36
Vero E6 [18]	4.5	–

drug-induced phospholipidosis [%], A549-ACE2 [19]
Details	0.3 µM	0.833333 µM	3.33333 µM	6.66667 µM	10 µM	30 µM
24 h	-0.85	2.59	9.31	10.3	4.47	3.32
48 h	3.76	2.95	-2.25	-3.67	–	–
72 h	4.47	2.39	-2.58	–	–	–
